This is an account of results in paper PMC9399641, “Inhibition mechanism of alpha-amylase, a diabetes target, by a steroidal pregnane and pregnane glycosides derived from Gongronema latifolium Benth” (Frontiers in Molecular Biosciences, 2022).

In assay [1] the target is T1, alpha-amylase from porcine pancreas (Sus scrofa, UniProt P00690).
T1 sequence (P00690 16-511): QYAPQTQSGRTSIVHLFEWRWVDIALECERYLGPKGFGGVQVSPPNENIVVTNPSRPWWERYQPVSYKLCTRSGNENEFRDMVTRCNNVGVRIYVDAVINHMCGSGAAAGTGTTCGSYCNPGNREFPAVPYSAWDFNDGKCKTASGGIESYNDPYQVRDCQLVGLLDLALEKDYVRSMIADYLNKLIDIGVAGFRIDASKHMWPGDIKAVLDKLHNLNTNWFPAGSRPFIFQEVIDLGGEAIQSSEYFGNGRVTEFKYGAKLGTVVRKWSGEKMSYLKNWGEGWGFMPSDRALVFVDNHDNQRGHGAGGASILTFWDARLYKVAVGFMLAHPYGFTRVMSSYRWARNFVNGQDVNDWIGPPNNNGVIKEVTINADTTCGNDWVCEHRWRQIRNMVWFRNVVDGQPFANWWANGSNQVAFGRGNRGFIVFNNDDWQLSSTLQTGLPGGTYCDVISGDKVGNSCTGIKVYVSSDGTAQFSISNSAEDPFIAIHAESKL
Briefly: alpha-amylase inhibition assay (DNSA method). The assay is classed as biochemical. The settings on record: for LogIC50: isolated compounds and acarbose, log of IC50 in uM. As for the experimental part: Varying concentrations of the pregnane-rich fractions (40–200 μg/ml) and those of the isolated compounds (10–50 μg/ml) were prepared in DMSO. Briefly, 100 μL of the test substance was reacted with 200 μl of alpha-amylase (alpha-amylase from porcine pancreas, EC 3.2.1.1, type VI, Sigma) and 100 μl of […] phosphate buffer (pH 6.9) of 0.02 M sodium phosphate (pH 6.9). Subsequent to incubation for 20 min, 100 μL of 1% starch substrate was added. Blank controls where the enzyme was replaced with the buffer were also prepared alongside. Following incubation of the reaction mixture for 5 min, 500 μl of dinitrosalicylic acid reagent was mixed with the control and the test. These were kept in a water bath at a boiling temperature for 5 min.
The half-maximal inhibitory concentration (IC50) values were determined by fitting inhibition parameters with standard log inhibitor vs. normalized response models using nonlinear regression as described by [Buchwald (2020)].

Assay [2] concerns albino rats. Briefly: oral starch tolerance test. In kind it is in vivo. The settings on record: for AUC / PBG / % reduction of AUC / % reduction of PBG: 3.0 g/kg starch; for AUC: blood glucose 0-120 min; for AUC / PBG: mean ± SEM n = 4; for % reduction of AUC / % reduction of PBG: vs control; for blood glucose level: oral, starch-challenged rats. As for the experimental part:
The animal study was reviewed and approved by the University Ethical Review Committee of the University of Ilorin (Protocol Identification Code: UERC/LSC/183). An oral starch tolerance test was carried out as described in a previous study ([Poovitha and […], 2016]). […] After 10 min, the blood glucose level was estimated (0 min), and the rats were orally administered with 3.0 g/kg starch. Then, the blood glucose level was estimated at 30, 60, and 120 min after the administration using a glucometer. Peak blood glucose (PBG) was determined by observing the blood glucose level during the previously mentioned time intervals, and the area under the curve (AUC) was calculated.

Where two headings read alike, the source gives them in different places. Marks after values point to notes of the source that are not given here.

As to `COC1C(O)C(C)OC(OC2C(O)CC(OC3CCC4(C)C(=CCC5(O)C4C(O)C(O)C4(C)C(C(C)=O)CCC54O)C3)OC2C)C1O` [P4, 3-O-[6-deoxy-3-O-methyl-β-D-allopyranosyl-(1→4)-β-D-canaropyranosyl]-17β-marsdenin], in assay [1], the LogIC50 is on record as 1.137. For the same molecule, the IC50 (commonly the point on the concentration scale where inhibition reaches its midpoint) in assay [1] (read-out: IC50) is 13.7 µM.
In assay [1], `CC=C(C)C(=O)OC1C2C3(C)CCC(OC4CC(OC)C(OC5OC(C)C(O)C(OC)C5O)C(C)O4)CC3=CCC2(O)C2(O)CCC(C(C)=O)C2(C)C1OC(=O)C(C)=CC` [P2, 3-O-[6-deoxy-3-O-methyl-β-D-allopyranosyl-(1→14)-β-D-oleandropyranosyl]-11,12-di-O-tigloyl-17β-marsdenin] showed an IC50 of 12.1 µM and a LogIC50 of 1.083.
Take `CC(O)[C@H]1CC[C@@]2(O)[C@]1(C)[C@H](O)[C@@H](O)[C@@H]1[C@@]3(C)CC[C@H](O)CC3=CC[C@]12O` (some centres unmarked) [P1, marsectohexol]: in assay [1], the LogIC50 is reported as 1.000. Also, the IC50 in assay [1] (read-out: IC50) stood at 10 µM. In assay [2] (10 mg/kg oral), the AUC came to 883.5 ± 19.50 mmol·min/L, the PBG is reported as 2.90 ± 0.10^ab mmol/L, the “% reduction of AUC” value is 6.36% and the “% reduction of PBG” value is recorded as 19.44%. Moreover, in assay [2] (20 mg/kg oral), the AUC turned out to be 699.0 ± 48.0 mmol·min/L, the PBG was 2.15 ± 0.45^b mmol/L and the “% reduction of AUC” value was 25.91%. Also, the “peak blood glucose (PBG) and area under the curve (AUC)” value in assay [2] (20 mg/kg oral, after starch loading, in words) was “significantly reduced”. Also, the blood glucose level entry in assay [2] (in words) is on record as “significantly reduced”. In assay [2] (in words, listed as marsectohexol), the blood glucose level entry is on record as “significant decrease”.
Take `C[C@H]1O[C@H](O[C@H]2[C@H](O)[C@@H](O)[C@@H](O[C@H]3[C@H](O)[C@@H](O)C(O)O[C@@H]3CO)O[C@@H]2CO)[C@H](O)[C@@H](O)[C@@H]1N[C@H]1C=C(CO)[C@@H](O)[C@H](O)[C@H]1O` (some centres unmarked) [Acarbose, acarbose, reference compound]: the “percentage inhibitory activity on porcine alpha-amylase” value in assay [1] (in words, fractions 40–200 μg/ml, compounds 10–50 μg/ml) was “greatest inhibition effects”. In assay [2] (10 mg/kg oral), the PBG is 2.85 ± 0.05^ab mmol/L, the “% reduction of AUC” value is given as 7.00% and the “% reduction of PBG” value was 20.83%. The blood glucose level entry in assay [2] (in words) is on record as “significant decrease”.
Regarding `COC1CC(OC2CCC3(C)C(=CCC4(O)C3C(O)C(O)C3(C)C(C(C)=O)CCC43O)C2)OC(C)C1OC1OC(C)C(O)C(OC)C1O` [P3, 3-O-[6-deoxy-3-O-methyl-β-D-allopyranosyl-(1→4)-β-D-oleandropyranosyl]-17β-marsdenin], in assay [1], half-maximal inhibition (IC50) was put at 14 µM and the LogIC50 turned out to be 1.147.
